Assay results from patent US6849256B1, “Inhibition of pathogens by probiotic bacteria” (priority 1999, dated 2005).

System: Bacillus coagulans, subspecies Hammer (ATCC-31284)
Assay: Kirby-Bauer antibiotic susceptibility testing of Bacillus coagulans
Assay type: cell-based
Details: inhibition zone diameter (disk diffusion)

Compound	Susceptibility of Bacillus coagulans to the antibiotic, Kirby-Bauer testing
Cc1onc(-c2ccccc2)c1C(=O)N[C@@H]1C(=O)N2[C@@H]1SC(C)(C)[C@@H]2C(=O)O [oxacillin]	Susceptible
CC1(C)S[C@@H]2[C@H](NC(=O)[C@H](N)c3ccccc3)C(=O)N2[C@H]1C(=O)O [ampicillin]	Susceptible
gentamicin	Susceptible
CO[C@H]1/C=C/O[C@@]2(C)Oc3c(C)c(O)c4c(O)c(c(/C=N/N5CCN(C)CC5)c(O)c4c3C2=O)NC(=O)/C(C)=C\C=C\[C@H](C)[C@H](O)[C@@H](C)[C@@H](O)[C@@H](C)[C@H](OC(C)=O)[C@@H]1C [rifampin]	Susceptible
CC[C@H]1OC(=O)[C@H](C)[C@@H](O[C@H]2C[C@@](C)(OC)[C@@H](O)[C@H](C)O2)[C@H](C)[C@@H](O[C@@H]2O[C@H](C)C[C@H](N(C)C)[C@H]2O)[C@](C)(O)C[C@@H](C)C(=O)[C@H](C)[C@@H](O)[C@]1(C)O [erythromycin]	Susceptible
CN[C@H](CC(C)C)C(=O)N[C@H]1C(=O)N[C@@H](CC(N)=O)C(=O)N[C@H]2C(=O)N[C@H]3C(=O)N[C@H](C(=O)N[C@H](C(=O)O)c4cc(O)cc(O)c4-c4cc3ccc4O)[C@H](O)c3ccc(c(Cl)c3)Oc3cc2cc(c3O[C@@H]2O[C@H](CO)[C@@H](O)[C@H](O)[C@H]2O[C@H]2C[C@](C)(N)[C@H](O)[C@H](C)O2)Oc2ccc(cc2Cl)[C@H]1O [vancomycin]	Susceptible
trimethoprim-sulfamethoxazole	Susceptible
O=C(O)c1cn(C2CC2)c2cc(N3CCNCC3)c(F)cc2c1=O [ciprofloxacin]	Susceptible

System: Bacillus coagulans, subspecies Hammer (ATCC-31284)
Assay: Vitek machine-based antibiotic susceptibility testing of Bacillus coagulans
Assay type: cell-based
Details: 500 μg/ml

Compound	Susceptibility of Bacillus coagulans to the antibiotic, Vitek testing
gentamicin	Susceptible

Same assay, conditions: 2,000 μg/ml

Compound	Susceptibility of Bacillus coagulans to the antibiotic, Vitek testing
[H]/N=C(/N)N[C@H]1[C@H](O)[C@@H](O)[C@H](O[C@@H]2O[C@@H](C)[C@](O)(C=O)[C@H]2O[C@@H]2O[C@@H](CO)[C@H](O)[C@@H](O)[C@@H]2NC)[C@@H](N/C(N)=N\[H])[C@@H]1O [streptomycin]	Susceptible

Same assay, conditions: optical density of culture

Compound	Susceptibility of Bacillus coagulans to the antibiotic, Vitek testing
penicillin	Susceptible
O=C(N[C@H](CO)[C@H](O)c1ccc([N+](=O)[O-])cc1)C(Cl)Cl [chloramphenicol]	Susceptible
CN[C@H](CC(C)C)C(=O)N[C@H]1C(=O)N[C@@H](CC(N)=O)C(=O)N[C@H]2C(=O)N[C@H]3C(=O)N[C@H](C(=O)N[C@H](C(=O)O)c4cc(O)cc(O)c4-c4cc3ccc4O)[C@H](O)c3ccc(c(Cl)c3)Oc3cc2cc(c3O[C@@H]2O[C@H](CO)[C@@H](O)[C@H](O)[C@H]2O[C@H]2C[C@](C)(N)[C@H](O)[C@H](C)O2)Oc2ccc(cc2Cl)[C@H]1O [vancomycin]	Susceptible
CCn1cc(C(=O)O)c(=O)c2cc(F)c(N3CCNCC3)cc21 [norfloxacin]	Susceptible
